Experimental data reported in patent US20110104301A1, “METHODS OF REDUCING PAIN AND INFLAMMATION” (Georgetown University, A Congressionally Chartered …, priority 2008, published 2011).

What was measured:
TRPA1 [1] = target: T1, TRPA1 (Rattus norvegicus, UniProt Q6RI86); assay: Whole-cell patch-clamp of TRPA1-expressing HEK293 cells; assay type: cell-based; conditions: for Response relative to the full agonist AITC: AITC 1 mM
T1 construct: expressed in transfected cells; host or cells: HEK 293F
Experimental: (§1) Electrophysiology. […] Whole-cell and single-channel patch-clamp recordings were performed by using an EPC8 amplifier (HEKA Electronics). For whole-cell and excised patch recordings the bath solution contained 140 mMNaCl, 4 mMKCl, 1 mMMgCl2, 1.2 mMCaCl2, 10 mMHepes, 10 mM glucose, pH 7.3. For cell-attached experiments, NaCl was replaced with KCl in the bath solution. […] For neuronal recording NaCl was replaced with K-gluconate (plus 1 mMATP, 0.2 mM GTP). Solutions were applied via a gravity-fed system. […] Voltage-dependent properties were measured as described in Matt and Ahern, J. Physiol. […] The baseline currents under control conditions were subtracted. For cell-attached experiments, peak amplitudes were measured from all-points histograms, and open probability was measured as NPo>750 ms. Defolliculated Xenopus laevis oocytes were injected with ≈10 ng of hTRPA1 (gift of Ardem Patapoutian, The Scripps Research Institute, La Jolla, Calif.).
Volatile General Anesthetics and Chemicals. Saturated stock solutions of volatile GAs were prepared in gas-tight bottles by dissolving excess anesthetic agents in bath solutions overnight. From these stock solutions fresh dilutions were made up every 40-60 min. Concentrations of GAs in the bath solutions were verified by using a modified head-space gas chromatography method. […] Alcohols with <6 carbons were dissolved directly into extracellular solution, and alcohols containing 6 carbons or more were dissolved in DMSO and then diluted into extracellular solutions that were sonicated for 20 min. All other drugs were prepared as stock solutions in DMSO or ethanol and diluted into physiological solution before experiments.

TRPM8 = target: T2, TRPM8 (Rattus norvegicus, UniProt Q8R455); assay: Whole-cell patch-clamp of TRPM8-expressing HEK293 cells; assay type: cell-based; conditions: 100 μM
T2 construct: expressed in transfected cells; host or cells: HEK 293F
T2 sequence (Q8R455 whole entry): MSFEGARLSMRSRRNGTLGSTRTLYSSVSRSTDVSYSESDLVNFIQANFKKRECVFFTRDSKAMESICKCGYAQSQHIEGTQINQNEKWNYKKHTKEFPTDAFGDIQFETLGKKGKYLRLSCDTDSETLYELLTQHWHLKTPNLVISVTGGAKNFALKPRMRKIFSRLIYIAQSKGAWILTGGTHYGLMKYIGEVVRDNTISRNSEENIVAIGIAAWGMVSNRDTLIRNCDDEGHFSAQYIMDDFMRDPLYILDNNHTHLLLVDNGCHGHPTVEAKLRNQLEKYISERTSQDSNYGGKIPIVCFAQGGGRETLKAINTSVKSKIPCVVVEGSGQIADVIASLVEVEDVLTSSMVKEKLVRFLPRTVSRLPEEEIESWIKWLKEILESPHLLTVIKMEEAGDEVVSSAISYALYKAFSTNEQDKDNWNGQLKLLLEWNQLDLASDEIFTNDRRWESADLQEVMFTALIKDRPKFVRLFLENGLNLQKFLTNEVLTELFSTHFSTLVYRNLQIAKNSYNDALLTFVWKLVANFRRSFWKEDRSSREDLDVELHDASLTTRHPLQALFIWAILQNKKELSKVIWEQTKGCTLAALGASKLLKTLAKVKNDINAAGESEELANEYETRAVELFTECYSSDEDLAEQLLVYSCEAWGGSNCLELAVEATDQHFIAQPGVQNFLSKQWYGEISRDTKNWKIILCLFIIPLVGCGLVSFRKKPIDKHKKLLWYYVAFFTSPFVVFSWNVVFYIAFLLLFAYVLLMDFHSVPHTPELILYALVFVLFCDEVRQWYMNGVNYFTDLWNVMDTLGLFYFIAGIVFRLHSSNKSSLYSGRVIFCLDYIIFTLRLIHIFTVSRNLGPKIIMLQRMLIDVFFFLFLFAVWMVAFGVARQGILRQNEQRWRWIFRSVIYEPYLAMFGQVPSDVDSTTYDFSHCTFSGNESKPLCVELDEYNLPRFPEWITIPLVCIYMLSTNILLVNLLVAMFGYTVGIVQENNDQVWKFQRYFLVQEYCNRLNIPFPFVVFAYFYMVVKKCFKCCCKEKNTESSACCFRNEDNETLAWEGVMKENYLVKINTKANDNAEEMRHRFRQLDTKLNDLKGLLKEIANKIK
Experimental: as §1

TRPA1 [2] = target: T1, TRPA1; assay: Single-channel recordings of TRPA1 (outside-out / cell-attached patches); assay type: cell-based
Experimental: (§2) Electrophysiology. HEK 293F cells were transfected with rat TRPV1, TRPA1, and TRPM8 (gift of David Julius, University of California, San Francisco). Dorsal root ganglia were cultured from adult mice (C57B16/J wild type and TRPV1-null, and mixed B6/129 background TRPA1-null) in Neurobasal +2% B-27 medium (Invitrogen), 0.1% L-glutamine and 1% penicillin/streptomycin. Whole-cell and single-channel patch-clamp recordings were performed by using an EPC8 amplifier (HEKA Electronics). For whole-cell and excised patch recordings the bath solution contained 140 mMNaCl, 4 mMKCl, 1 mMMgCl2, 1.2 mMCaCl2, 10 mMHepes, 10 mM glucose, pH 7.3. For cell-attached experiments, NaCl was replaced with KCl in the bath solution. The pipette solution contained 140 mM NaCl or KCl, 10 mM Hepes, 5 mM EGTA, pH 7.3. For neuronal recording NaCl was replaced with K-gluconate (plus 1 mMATP, 0.2 mM GTP). Solutions were applied via a gravity-fed system. Separate outlets were used to apply capsaicin and AITC solutions to avoid contamination. Voltage-dependent properties were measured as described in Matt and Ahern, J. Physiol. 585:469-482 (2007). Current-voltage measurements comprised a 200-ms ramp from −150 mV to +200 mV. The baseline currents under control conditions were subtracted. For cell-attached experiments, peak amplitudes were measured from all-points histograms, and open probability was measured as NPo>750 ms. Defolliculated Xenopus laevis oocytes were injected with ≈10 ng of hTRPA1 (gift of Ardem Patapoutian, The Scripps Research Institute, La Jolla, Calif.). Oocytes were placed in a Perspex chamber and continuously superfused (5 ml min^−1) with Ca^2+-free solution containing 100 mM NaCl, 2.5 mM KCl, 5 mM Hepes, 1 mM MgC12 and titrated to pH 7.3 with ˜5 mM NaOH.

[3] = tested on: AITC-sensitive DRG neurons; assay: Voltage- and current-clamp of DRG sensory neurons; assay type: cell-based, mouse; conditions: 100 μM
Experimental: as §2

DRG neurons = assay: Ca2+ imaging in DRG neurons from wild-type mice; assay type: cell-based, mouse; conditions: propofol 100 μM
Experimental: (§3) Ca^2+ Imaging. Neurons were loaded with 1 μM Fluo4-AM (Molecular Probes) for 20 min and washed for a further 10-20 min before recording. The dye was excited at 488±15 nm. Emitted fluorescence was filtered with a 535±25 nm bandpass filter, captured by a SPOT RT digital camera (Diagnostic Instruments) and read into a computer. Analysis was performed offline by using Simple PCI software (Compix Inc.).

[4] = tested on: DRG neurons from TRPA1-null mice; assay: Ca2+ imaging in DRG neurons from TRPA1-null mice; assay type: cell-based, mouse; conditions: desflurane n=125, propofol n=120
Experimental: as §3

mice [5] = assay: Nocifensive behavior after topical application to the nasal epithelium; assay type: in vivo, mouse
Experimental: (§4) Behavioral Experiments and Neurogenic Inflammation. Animal experiments were performed according to National Institutes of Health and institutional guidelines. […] Nocifensive behavior (nose wiping in sawdust bedding) was recorded for 2 min with a video camera and the duration was subsequently measured by a blinded observer. […] Electromyographic (EMG) activity was recorded via platinum electrodes from the semitendinosus muscle in mice anesthetized with urethane (1.3 g/kg) as described in Ando and Watanabe, Br J. Anaesth. […] The EMG signal was recorded by using a low-pass cutoff frequency of 200 Hz and integrated offline by using a 100-ms time window. […] Ear thickness was recorded by using an engineer's micrometer (Mitutoyo Corp.) before mustard-oil application and thereafter every 15 min for 60 min of anesthesia and 60 min of recovery.

mice [6] = assay: Flexor reflex response (EMG of semitendinosus muscle) after femoral artery injection; assay type: in vivo, mouse; conditions: propofol 500 μM, capsaicin 50 μM
Experimental: as §4

TRPV1 = TRPV1 (Rattus norvegicus, UniProt O35433); assay: Whole-cell patch-clamp of TRPV1-expressing HEK293 cells; assay type: cell-based; set-up: expressed in transfected cells; host or cells: HEK 293F (Invitrogen), co-transfected with GFP cDNA; conditions: 100 μM
Chain of TRPV1 (O35433 whole entry): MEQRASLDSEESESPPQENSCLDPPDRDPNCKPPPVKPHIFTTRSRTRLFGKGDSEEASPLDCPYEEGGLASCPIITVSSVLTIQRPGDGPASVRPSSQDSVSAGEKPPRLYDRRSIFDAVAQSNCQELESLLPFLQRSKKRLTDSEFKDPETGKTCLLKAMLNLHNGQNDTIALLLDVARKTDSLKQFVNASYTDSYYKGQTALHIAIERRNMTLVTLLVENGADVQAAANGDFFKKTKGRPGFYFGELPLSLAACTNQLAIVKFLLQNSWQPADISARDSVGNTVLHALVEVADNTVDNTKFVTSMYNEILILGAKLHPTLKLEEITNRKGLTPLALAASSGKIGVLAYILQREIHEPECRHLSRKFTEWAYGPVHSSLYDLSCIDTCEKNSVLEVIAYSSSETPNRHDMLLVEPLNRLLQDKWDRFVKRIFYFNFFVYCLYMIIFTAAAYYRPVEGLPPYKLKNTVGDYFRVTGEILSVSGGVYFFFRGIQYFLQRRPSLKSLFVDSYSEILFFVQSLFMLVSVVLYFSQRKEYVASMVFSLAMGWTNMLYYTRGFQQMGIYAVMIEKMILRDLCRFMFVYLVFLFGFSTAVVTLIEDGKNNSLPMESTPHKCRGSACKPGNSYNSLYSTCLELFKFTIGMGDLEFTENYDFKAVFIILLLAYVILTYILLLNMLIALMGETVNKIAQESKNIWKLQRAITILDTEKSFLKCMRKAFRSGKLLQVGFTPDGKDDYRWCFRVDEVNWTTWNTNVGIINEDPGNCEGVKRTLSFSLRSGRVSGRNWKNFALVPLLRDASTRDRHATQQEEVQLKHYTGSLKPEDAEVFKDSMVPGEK
Experimental: as §1
HEK cell and sensory neuron electrophysiology. […] Cell cultures were maintained at 37° C. with 5% CO2. Cells were transfected with rat TRPV 1 (gift of David Julius), and GFP cDNA using Lipofectamine™ Transfection Reagent (Invitrogen) and used 24-48 h after transfection. Nodose ganglia were obtained from adult mice (C57B16/J and TRPV1-null), cut, digested with collagenase, and cultured in Neurobasal +2% B-27 medium (Invitrogen), 0.1% L-glutamine and 1% penicillin/streptomycin on poly-D lysine-coated glass coverslips at 37° C. in 5% CO2. Neurons were used within 24-36 hr of culture. Whole-cell and single-channel patch clamp recordings were performed using an EPC8 amplifier (HEKA). The current signal was low-pass filtered at 1-3 kHz and sampled at 4 kHz. Currents were further filtered for display purposes. For whole-cell and excised patch recordings the bath solution contained (in mM): 140 NaCl, 4 KCl, 1 MgCl2, 1 EGTA, 10 HEPES, 10 glucose pH 7.3 (290 mOsm). The pipette solution contained (in mM): 140 CsC1, 10 NaCl, 10 HEPES, 5 EGTA, 2 Mg ATP and 0.03 GTP, pH 7.3. The peak amplitudes measured either during the prepulse or the tail current (within 1 ms) were plotted as a function of the test potential and normalized to the maximal current obtained from the following Boltzmann function: […]

T1 sequence (Q6RI86 whole entry): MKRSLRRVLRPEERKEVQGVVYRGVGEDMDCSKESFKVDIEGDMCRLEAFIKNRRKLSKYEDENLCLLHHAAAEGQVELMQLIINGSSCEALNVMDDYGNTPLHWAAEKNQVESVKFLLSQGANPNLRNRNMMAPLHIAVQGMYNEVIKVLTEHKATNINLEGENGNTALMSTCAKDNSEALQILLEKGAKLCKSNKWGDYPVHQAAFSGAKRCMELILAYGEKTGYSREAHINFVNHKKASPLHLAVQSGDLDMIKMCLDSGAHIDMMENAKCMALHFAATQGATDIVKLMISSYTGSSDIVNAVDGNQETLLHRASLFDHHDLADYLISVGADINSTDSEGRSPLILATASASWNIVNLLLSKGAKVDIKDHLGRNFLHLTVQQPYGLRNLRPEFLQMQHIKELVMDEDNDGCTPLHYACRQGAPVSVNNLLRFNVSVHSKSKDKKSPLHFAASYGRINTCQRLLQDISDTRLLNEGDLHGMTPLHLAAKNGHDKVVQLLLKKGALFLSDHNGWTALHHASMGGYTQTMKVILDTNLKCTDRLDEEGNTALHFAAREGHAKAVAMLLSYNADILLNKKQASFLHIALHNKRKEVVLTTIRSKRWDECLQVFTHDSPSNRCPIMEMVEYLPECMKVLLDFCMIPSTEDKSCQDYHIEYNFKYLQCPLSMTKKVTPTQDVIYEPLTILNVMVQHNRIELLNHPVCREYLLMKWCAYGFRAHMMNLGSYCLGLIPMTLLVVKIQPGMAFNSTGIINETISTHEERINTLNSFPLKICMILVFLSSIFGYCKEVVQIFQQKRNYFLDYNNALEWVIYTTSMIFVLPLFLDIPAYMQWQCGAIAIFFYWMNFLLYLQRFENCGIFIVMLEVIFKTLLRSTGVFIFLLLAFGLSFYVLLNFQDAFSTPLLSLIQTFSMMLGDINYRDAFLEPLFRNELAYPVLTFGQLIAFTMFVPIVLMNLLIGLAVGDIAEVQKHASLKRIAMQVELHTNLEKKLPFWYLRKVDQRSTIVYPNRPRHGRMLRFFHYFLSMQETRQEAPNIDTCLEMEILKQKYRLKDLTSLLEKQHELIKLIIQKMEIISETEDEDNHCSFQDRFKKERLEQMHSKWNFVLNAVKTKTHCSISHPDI

Compound: CC(C)c1cccc(C(C)C)c1O [propofol]
- Activation of TRPA1 by i.v. GAs (TRPA1 [1]; 100 μM, membrane potential −50 mV): robust activation
- Concentration range of TRPA1 activation (TRPA1 [1]; FIG. 2D): 1 to 100 µM
- Response relative to the full agonist AITC (TRPA1 [1]; at +200 my): ~38%
- Response relative to the full agonist AITC (TRPA1 [1]; at −150 mV): ≈ 8%
- Co-application with octanol at TRPA1 (TRPA1 [1]; propofol 100 μM + octanol 1.8 mM): additive response
- Change in V1/2 of TRPM8 (ΔV1/2, increase) (TRPM8; n=5-6): 1.7 mV
- Effect of i.v. GAs on TRPM8 channels (TRPM8; −50 mV): without effect
- TRPA1 unitary conductance in presence of propofol (TRPA1 [2]; 100 μM, outside-out patch, Vm +40 mV, decrease from 108 pS): 94 pS
- Single TRPA1 channel activity (TRPA1 [2]; cell-free patches): increased TRPA1 activity and reduced the unitary conductance
- Inward currents in AITC-sensitive DRG neurons ([3]; n=6): inward currents were also observed
- Membrane potential under current clamp ([3]; elicits action potentials): depolarized
- Cells with dual sensitivity to propofol and AITC (DRG neurons): ≈ 30%
- Ca2+ responses in neurons from TRPA1-null mice [4]: no responses
- Duration of nocifensive response (mice [5]; TRPA1+/− littermates, propofol 50% topical): ≈ 35 s
- Nocifensive behavior in TRPA1-null mice (mice [5]; propofol 50% topical): completely absent
- Duration of pain-related (nocifensive) behavior (mice [5]; wild-type mice, propofol 50% topical to nasal epithelium, 2-min period): ≈ 40 s
- Flexor reflex muscle activity in TRPA1+/− mice (mice [6]): evoked reflex muscle activity
- Flexor reflex muscle activity in TRPA1-null mice (mice [6]): no responses
- Reduction in half-maximal voltage (V1/2) for TRPV1 activation (TRPV1; n=4-5): 10.5 mV
- Effect of i.v. GAs on TRPV1 channels (TRPV1; −50 mV): without effect
